Values of other authors, collected in US20040248214A1, “Novel method of assaying immune activity” (priority 2001, published 2004).

Key:
[1] = test system: NKT cells; settings: cancer-bearing mouse

## CCCCCCCCCCCCCCCCCCCCCCCCCC(=O)N[C@@H](CO[C@H]1O[C@H](CO)[C@H](O)[C@H](O)[C@H]1O)[C@H](O)[C@H](O)CCCCCCCCCCCCCC [α-galactosylceramide]
[1]
  activation of NKT cells: NKT cells were activated
  disappearance of cancer: disappearance of cancer was not noted
  metastasis: metastasis was suppressed

## IL-12: interleukin 12
IL-12 per se directly administered into living body
  side effect: results in a side effect
In vivo
  anti-cancer effect: has an anti-cancer effect
